According to patent publication US7531195B2, “Schisandrin B preparation” (priority 2005, dated 2009):

Tests used:
Format in all cases: cell-based, rat
H9c2 cells [1] = test: Cellular GSH level in H9c2 cells, time course, with or without xanthine/xanthine oxidase (X/XO) challenge; settings: 6.25 μM
Description: (§1) H9c2 cells, a permanent cell line derived from cardiac myoblasts of rat embryo, have early been characterized as a suitable model of myocardial cells [Hescheler et al. 1991]. H9c2 cells were cultured as monolayers in Dulbecco's modified Eagle's medium (GIBCO BRL) supplemented with 10% (v/v) fetal bovine serum. The medium contained glucose (4.5 g/L) and glutamine (4.5 mM), supplemented with NaHCO3 (17 mM), penicillin (100 IU/ml), and streptomycin (100 μg/ml). Cells were grown under an atmosphere of 5% CO2 in air at 37° C. The medium was replaced by fresh medium every 2 or 3 days. A stock of cells was grown in a 75 cm culture flask and split before confluence at a subcultivation ratio of 1:10. Cells used for experiments were seeded at a density of 3.75×10^4 cells/well on a 12-well culture plate, and the cells were grown for 24 h to about 80% confluence prior to drug treatment.
(§2) Cultured H9c2 cells were treated with (−) Schisandrin B, (+) Schisandrin B or (±) Schisandrin B (dissolved in DMSO) at 6.25 μM (0.2% DMSO final concentration) for increasing periods of time. Control cells were given the vehicle (i.e. DMSO) only. Immediately following the drug or vehicle pretreatment, the cells were challenged with a mixture of xanthine (X) (0.1 mM) and xanthine oxidase (XO) (0.4 U/ml) for 4 h. The control cells were treated with the medium only. After the X/XO challenge, the medium was taken for the measurement of LDH activity, a biochemical index of cellular injury.
(§3) The cells were washed twice with 0.5 ml cold phosphate-buffered saline (PBS), An aliquot (200 μl) of 3% sulfonsalicyclic acid was then added, and the mixture was incubate at 4° C. for 10 min. After centrifuging at 300 g for 15 min at 4° C., the supernatant was used for GSH measurement by an enzymatic method of Griffith (1980).

H9c2 cells [2] = test: Xanthine/xanthine oxidase-induced cytotoxicity (LDH leakage) in H9c2 cells; settings: X/XO challenge, 6.25 μM
Description: as §1, §2

H9c2 cells [3] = test: Menadione-induced toxicity (LDH) in H9c2 cells
Description: as §1
(§4) Cultured H9c2 cells were treated with (−) Schisandrin B, (+) Schisandrin B or (±) Schisandrin B (dissolved in DMSO) at 6.25 μM (0.2% DMSO final concentration) for 16 h. Control cells were given the vehicle (i.e. DMSO) only. Immediately following the drug or vehicle pretreatment, the cells were challenged with menadione (dissolved in ethanol) at 12.5 μM (0.2% ethanol final concentration) for 4 h. The control cells were treated with the medium containing 0.2% ethanol only. After the menadione challenge, the medium was taken for the measurement of LDH activity, an biochemical index of cell injury.

H9c2 cells [4] = test: Cellular GSH level in H9c2 cells with or without menadione challenge
Description: as §1, §4, §3

Hsp25 = Hsp25 expression in H9c2 cells (Western blot); settings: 6.25 μM
Description: as §1
(§5) Cultured H9c2 cells were treated with (−) Schisandrin B, (+) Schisandrin B or (±) Schisandrin B (dissolved in DMSO) at 6.25 μM (0.2% DMSO final concentration) for increasing periods of time. Control cells were given the vehicle (i.e. DMSO) only.
(§6) Immediately following the drug treatment, the cells were washed twice with 0.5 ml cold PBS and treated with 100 μl lysis buffer containing 20 mM Tris HCl, 3 mM EGTA, 1% Triton X-100, 10% glycerol and 2 mM dithiothreitol, pH 7.5, with freshly added protease inhibitors (1 mM phenylmethylsulfonyl fluoride, 0.1 mM benzamide, 5 μg/ml leupeptin, 5 μg aproptinin and 5 μg/ml pepstain A). The mixture was incubated at 4° C. for 15 min with constant shaking. Then the cells were scraped off from the plate, and the extract was transferred to a microcentrifuge tube for centrifugation at 2,400 g for 3 min at 4° C. The resultant supernatant was used for Hsp analysis. Hsp25 and Hsp70 levels was estimated by Western blot analysis using specific antibodies (anti-Hsp25, catalog #SPA-801; anti-Hsp70, catalog #SPA-812) from StressGen (Vancouver, BC, Canada) following SDS-PAGE analysis cell lysates, using a separating gel of 10% acrylamide as described in Ip et. al. [2001]. Hsp25/27 and Hsp70 (human recombinant proteins from StressGen) and actin (bovine muscle from Sigma) were used as markers for reference. […] All immuno-blots were analyzed by densitometry, and the amounts (arbitrary units) of Hsp were normalized with reference to actin levels (arbitrary units) in the sample.

Hsp70 = Hsp70 expression in H9c2 cells (Western blot); settings: 6.25 μM
Description: as §1, §5, §6

[5] = X/XO challenge, 16 h post-dosing
[6] = 0 h post-dosing (unpretreated control)
[7] = MENADIONE 12.5 μM for 4 h, drug 6.25 μM for 16 h
[8] = NON-MENADIONE, 6.25 μM for 16 h

COc1cc2c(c(OC)c1OC)-c1c(cc3c(c1OC)OCO3)CC(C)C(C)C2 (racemic) [(±) Sch B, (±) Schisandrin B]
GSH Level (H9c2 cells [1]; NON-X/XO, 0 h post-dosing (unpretreated control)): 38.3 ± 1.16 nmol/mg protein | GSH Level (H9c2 cells [1]; NON-X/XO, 4 h post-dosing): 44.1 ± 3.60 nmol/mg protein | GSH Level (H9c2 cells [1]; NON-X/XO, 8 h post-dosing): 46.2 ± 1.90 nmol/mg protein | GSH Level (H9c2 cells [1]; NON-X/XO, 16 h post-dosing): 85.8 ± 2.57 nmol/mg protein | GSH Level, percent increase vs unpretreated control (0 h) (H9c2 cells [1]; NON-X/XO, 16 h post-dosing): (124%) | GSH Level (H9c2 cells [1]; NON-X/XO, 24 h post-dosing): 76.6 ± 0.88 nmol/mg protein | GSH Level (H9c2 cells [1]; NON-X/XO, 48 h post-dosing): 58.8 ± 6.54 nmol/mg protein | GSH Level (H9c2 cells [1]; X/XO challenge, 0 h post-dosing (unpretreated control)): 14.5 ± 1.06 nmol/mg protein | GSH Level (H9c2 cells [1]; X/XO challenge, 4 h post-dosing): 15.8 ± 0.49 nmol/mg protein | GSH Level (H9c2 cells [1]; X/XO challenge, 8 h post-dosing): 16.7 ± 1.32 nmol/mg protein | GSH Level (H9c2 cells [1]; [5]): 22.3 ± 0.15 nmol/mg protein | GSH Level, percent increase vs unpretreated control (0 h) (H9c2 cells [1]; [5]): (54%) | GSH Level (H9c2 cells [1]; X/XO challenge, 24 h post-dosing): 18.9 ± 0.50 nmol/mg protein | GSH Level (H9c2 cells [1]; X/XO challenge, 48 h post-dosing): 14.3 ± 1.04 nmol/mg protein | LDH Leakage (H9c2 cells [2]; [6]): 33.9 ± 0.93 U/L | LDH Leakage (H9c2 cells [2]; 4 h post-dosing): 28.7 ± 1.35 U/L | LDH Leakage (H9c2 cells [2]; 8 h post-dosing): 22.8 ± 0.45 U/L | LDH Leakage (H9c2 cells [2]; 16 h post-dosing): 15.8 ± 0.91 U/L | LDH Leakage, percent protection vs unpretreated control (0 h) (H9c2 cells [2]; 16 h post-dosing): (65%) | LDH Leakage (H9c2 cells [2]; 24 h post-dosing): 20.1 ± 0.76 U/L | LDH Leakage (H9c2 cells [2]; 48 h post-dosing): 29.2 ± 0.57 U/L | LDH (H9c2 cells [3]; [7]): 23.6 ± 0.56 U/ml | LDH, percent protection vs menadione control (H9c2 cells [3]; [7]): (43%) | LDH (H9c2 cells [3]; [8]): 14.6 ± 0.67 U/ml | GSH Level (H9c2 cells [4]; [7]): 28.9 ± 0.66 nmol/mg protein | GSH Level, percent increase vs menadione control (H9c2 cells [4]; [7]): (56%) | GSH Level (H9c2 cells [4]; [8]): 46.5 ± 2.58 nmol/mg protein | GSH Level, percent increase vs non-menadione control (H9c2 cells [4]; [8]): (34%) | Hsp 25 Level (Hsp25; [6]): 1413 ± 76 AU | Hsp 25 Level (Hsp25; 8 h post-dosing): 1512 ± 39 AU | Hsp 25 Level (Hsp25; 16 h post-dosing): 1611 ± 93 AU | Hsp 25 Level (Hsp25; 24 h post-dosing): 1728 ± 101 AU | Hsp 25 Level, percent increase vs unpretreated control (0 h) (Hsp25; 24 h post-dosing): (24%) | Hsp 25 Level (Hsp25; 48 h post-dosing): 1332 ± 77 AU | Hsp 70 Level (Hsp70; [6]): 434 ± 15.5 AU | Hsp 70 Level (Hsp70; 8 h post-dosing): 389 ± 24.7 AU | Hsp 70 Level (Hsp70; 16 h post-dosing): 652 ± 23.9 AU | Hsp 70 Level (Hsp70; 24 h post-dosing): 639 ± 23.4 AU | Hsp 70 Level, percent increase vs unpretreated control (0 h) (Hsp70; 24 h post-dosing): (47%) | Hsp 70 Level (Hsp70; 48 h post-dosing): 419 ± 15.4 AU
